Consider 13 molecules from publication PMC12564223, “UHPLC-QTOF-ESI-MS/MS, SNAP-MS Identification, In Silico Prediction of Pharmacokinetic Properties of Constituents from the Stem Bark of Holarrhena floribunda (G. Don) T. Durand and Schinz (Apocynaceae)” (Biomolecules, 2025).

Read-outs that look alike come from different tables or passages of the source.

Series [1] concerns P. falciparum 3D7 (Chloroquine-sensitive). The experiment in a line: Plasmodium falciparum growth inhibition assay (SYBR green I), 3D7 strain. The format is cell-based. Conditions: read-out: IC50/Pf3D7.
Series [2] concerns P. falciparum Dd2 (multidrug-resistant). Put plainly: Plasmodium falciparum growth inhibition assay (SYBR green I), Dd2 strain. The series is classed as cell-based. The following applies: for IC50: Plasmodium falciparum, read-out: IC50/PfDd2.
For series [3], the system named is Plasmodium falciparum K1 (multi-resistant). More on the design: method as in PMID 29172699. The following applies: Pf K1; ref [18]; cited from earlier work.
Series [4] concerns Plasmodium falciparum FCB1 (chloroquine-resistant). Details: method as in PMID 15863333. Conditions: Pf FCB1; ref [17]; cited from earlier work.
In series [5] the test system is human cervix carcinoma KB-3-1 cancer cell lines.
For series [6] the test system is unchanged. The experiment in a line: Cytotoxicity on KB-3-1 cells. The following applies: called IC50 in the text.
Where [7] appears, read: 3D7, compounds and reference drugs, 72 h incubation.
The mark [8] stands for this setting: DD2, compounds and reference drugs, 72 h incubation.

With `C[C@@H]1CC[C@H]2[C@@H](C)C(=O)O[C@@H]3O[C@@]4(C)CC[C@@H]1[C@]32OO4` [Artemisinin, reference compound], the IC50 was 0.035 µM in series [1] (setting [7]) and 0.025 ± 0.006 µM in series [2] (setting [8]). Further, the “RI: [IC50PfDd2/IC50Pf3D7]” value in series [2] (Resistance Index) was determined as 0.71.

In the case of `CCN(CC)CCCC(C)Nc1ccnc2cc(Cl)ccc12` (centres unmarked) [Chloroquine, reference compound], the IC50 in series [1] (3D7, 72 h) stood at 0.045 ± 0.003 µM; in series [2] (DD2, 72 h), 0.73 ± 0.09 µM. Moreover, in series [2], the “RI: [IC50PfDd2/IC50Pf3D7]” value was 16.22.

For the molecule `CC1N=CC23CCC4C(CC=C5CC(N)CCC54C)C2CCC13` (centres unmarked) [compound 3, Irheline], the values for the IC50 in series [1] (setting [7]), in series [3] and in series [2] (setting [8]) were more than 50 µM, 1.2 µM and more than 50 µM, respectively.

For `CNC1CCC2(C)C(=CCC3C2CCC24CNC(C)C2CCC34)C1` (centres unmarked) [compound 4, Conimin/conamine], the IC50 in series [3] was 8 µM.

Consider `C[C@H]1[C@H]2CC[C@H]3[C@@H]4CC=C5C[C@@H](N(C)C)CC[C@]5(C)[C@H]4CC[C@]23CN1C` [compound 5, Conessine], for which the IC50 in series [1] (3D7, 72 h) is 26 ± 0.43 µM; in series [4], 1040 nM; in series [2] (DD2, 72 h), 28.5 ± 0.704 µM. For the same molecule, the “RI: [IC50PfDd2/IC50Pf3D7]” value in series [2] (Resistance Index) was 1.09.

Consider `CC(C)=CCC(=O)O[C@@H]1C[C@H]2[C@@H](CC=C3C[C@@H](N(C)C)CC[C@@]32C)[C@@H]2CC[C@@H]3[C@H](C)N(C)C[C@]312` [compound 10, Holarrhetine], for which the IC50 in series [4] is 1130 ± 320 nM.

With `CNC1CCC2(C)C(=CCC3C2CC(OC(=O)CC=C(C)C)C24CN(C)C(C)C2CCC34)C1` (centres unmarked) [compound 11, Holarrhesine], the IC50 in series [4] was 970 ± 110 nM.

Take `CC(=O)C1CCC2C3CC=C4CC(N)CCC4(C)C3CCC12C` (centres unmarked) [compound 14, Holaphyllamine]: the IC50 turned out to be 49.5 ± 4.83 µM in series [1] (3D7, 72 h) and 55.8 ± 9.75 µM in series [2] (DD2, 72 h). In series [5], the “CC50 on KB-3-1” value is given as 9.8 µM. Also, the “RI: [IC50PfDd2/IC50Pf3D7]” value in series [2] (Resistance Index) was found to be 1.12.

Take `CC(O)C1CCC2C3CC=C4CC(N)CCC4(C)C3CCC12C` (centres unmarked) [compound 15, Holaphyllaminol]: the IC50 in series [3] was 11.7 µM.

Turning to `CNC1CCC2(C)C(=CCC3C2CCC2(C)C(C(C)=O)CCC32)C1` (centres unmarked) [compound 16, N-methylholaphyllamine], the IC50 in series [3] is 10.6 µM.

For `CCOC(=O)c1c(C)cc(O)cc1O` [compound 26, ethylorsalinate], the IC50 in series [1] (setting [7]) and in series [2] (setting [8]) was more than 50 µM each time.

On to `COc1cc(C)c2c(=O)c3c(O)cc(OC)cc3oc2c1` [compound 27, lichexanthone], for which the IC50 in series [1] (3D7, 72 h) turned out to be 33.4 ± 1.2 µM; in series [2] (DD2, 72 h), 36.5 ± 1.39 µM. Further, the “RI: [IC50PfDd2/IC50Pf3D7]” value in series [2] (Resistance Index) came out at 1.09.

As for Cryptophycin, the “CC50 on KB-3-1” value is 1.3 × 10^−5 μM µM in series [6] and 1.3e-05 µM in series [6] (listed as cryptophycin).
